Assay results taken from patent publication US11596644B2, “Method for treating post-prandial hypoglycemia” (AVOLYNT, priority 2018, dated 2023).

What was measured:
human SGLT1 = target: T1, human SGLT1 (Homo sapiens, UniProt P13866); assay: Inhibition of radiolabeled α-MG uptake into COS-7 cells transfected with human SGLT1 (Dixon plot); format: cell-based
T1 construct: expressed in transfected cells; host or cells: COS-7
T1 sequence (P13866 1-664): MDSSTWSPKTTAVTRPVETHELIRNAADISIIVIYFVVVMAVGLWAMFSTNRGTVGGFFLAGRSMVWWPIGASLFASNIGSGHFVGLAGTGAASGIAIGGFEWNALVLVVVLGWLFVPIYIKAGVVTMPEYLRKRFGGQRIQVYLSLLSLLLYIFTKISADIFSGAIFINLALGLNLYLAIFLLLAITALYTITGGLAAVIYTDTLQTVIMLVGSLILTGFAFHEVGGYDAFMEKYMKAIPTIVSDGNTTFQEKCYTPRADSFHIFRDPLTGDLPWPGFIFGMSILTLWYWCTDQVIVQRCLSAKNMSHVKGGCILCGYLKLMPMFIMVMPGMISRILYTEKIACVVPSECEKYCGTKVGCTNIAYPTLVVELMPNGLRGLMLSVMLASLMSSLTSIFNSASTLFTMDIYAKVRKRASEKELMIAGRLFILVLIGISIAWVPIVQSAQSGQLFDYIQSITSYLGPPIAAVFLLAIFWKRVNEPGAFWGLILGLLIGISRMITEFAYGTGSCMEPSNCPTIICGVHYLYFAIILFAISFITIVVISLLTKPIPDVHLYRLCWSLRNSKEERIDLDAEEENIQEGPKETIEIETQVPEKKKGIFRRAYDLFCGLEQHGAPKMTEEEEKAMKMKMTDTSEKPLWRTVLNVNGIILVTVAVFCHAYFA
Method: (§1) Selective inhibition study. Inhibition constants (Ki) of mizagliflozin for rat and human SGLT1 and SGLT2 were determined measuring concentration-dependent effects of test compound on uptake of radiolabeled methyl-α-D-glucopyranoside (α-MG) into COS-7 cells transiently transfected with cloned SGLT1 or SGLT2. Mizagliflozin was assessed at concentrations from 1 to 30 μM and 3 to 100 μM for human and rat SGLT2, respectively. It was assessed at concentrations from 30 nM to 1 μM and 10 to 30 nM for human and rat SGLT1, respectively. α-MG test concentrations were 0.3 and 1 mM. Data were analyzed and Ki determined using Dixon plots of initial transport rates. […] Inhibition constants were also determined for human SGLT1 and SGLT2.

[1] = system: normal Sprague Dawley rats; assay: Mixed carbohydrate tolerance test in normal rats; format: in vivo, rat
Method: Study on normal rats. The efficacy of mizagliflozin (decreasing plasma glucose levels) in normal Sprague Dawley rats was determined in a mixed carbohydrate tolerance test. Normal rats were fasted for 16 hours and then given an oral loading dose of 2.0 g/kg of mixed carbohydrate (soluble starch:sucrose:lactose monohydrate=6:3:1). Mizagliflozin (KGA-3235 sebacate), or water as the vehicle control, was then administered as a single oral dose to groups of male rats (n=8/group) at doses of 0.03, 0.1, 0.3, and 1 mg/kg. Voglibose, a glucosidase inhibitor similar to acarbose, was used as a positive control and was administered as a single oral dose to male rats (n=8/group) at dose levels of 0.1, 0.3 and 1 mg/kg. Blood samples were collected just prior to loading with mixed carbohydrate and at 0.5, 1, 2, 3, 4, and 6 hours after loading.

[2] = Oral pharmacokinetics and excretion in rats; format: in vivo, rat
Description: Accordingly, the SGLT1 inhibitor compounds of Formula I or Formula II are locally acting in the gut, and have poor systemic exposure. […] Systemic exposure (e.g., Cmax) can be measured by methods well known in the art, including liquid chromatography mass spectrometry.

rat SGLT1 = target: T2, rat SGLT1 (Rattus norvegicus, UniProt P53790); assay: Inhibition of radiolabeled α-MG uptake into COS-7 cells transfected with rat SGLT1 (Dixon plot); format: cell-based
T2 construct: expressed in transfected cells; host or cells: COS-7
T2 sequence (P53790 1-665): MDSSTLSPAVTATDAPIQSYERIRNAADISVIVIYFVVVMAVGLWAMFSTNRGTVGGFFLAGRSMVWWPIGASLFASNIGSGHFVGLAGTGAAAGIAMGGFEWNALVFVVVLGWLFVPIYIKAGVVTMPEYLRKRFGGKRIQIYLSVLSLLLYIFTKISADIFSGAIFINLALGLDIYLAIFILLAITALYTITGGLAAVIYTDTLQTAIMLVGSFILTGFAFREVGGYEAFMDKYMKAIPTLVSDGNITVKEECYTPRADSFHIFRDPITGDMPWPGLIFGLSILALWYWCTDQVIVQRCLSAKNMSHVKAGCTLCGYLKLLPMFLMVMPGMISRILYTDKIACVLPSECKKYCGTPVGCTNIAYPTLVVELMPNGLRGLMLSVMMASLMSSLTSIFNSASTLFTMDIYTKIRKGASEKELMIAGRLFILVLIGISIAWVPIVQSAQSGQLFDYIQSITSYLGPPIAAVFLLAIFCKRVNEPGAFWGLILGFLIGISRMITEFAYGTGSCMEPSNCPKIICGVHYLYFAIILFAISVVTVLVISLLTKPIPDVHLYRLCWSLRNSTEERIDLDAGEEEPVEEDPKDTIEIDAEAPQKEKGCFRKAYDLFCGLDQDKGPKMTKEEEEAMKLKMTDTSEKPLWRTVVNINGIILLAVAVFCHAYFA
Method: as §1

mode of inhibition of SGLT1 (Dixon plot intersection pattern) (human SGLT1; human SGLT1): competitive with substrate | Ki (human SGLT1; α-MG 0.3 and 1 mM, COS-7 cells, read-out: inhibition constant for human SGLT1): 27 nM | bioavailability ([2]; male, rat, plasma, po): 0.01 to 0.08% | excreted in the feces ([2]; rats, oral dosing): > 97 % of orally administered dose | mode of inhibition of SGLT1 (Dixon plot intersection pattern) (rat SGLT1; rat SGLT1): competitive with substrate | Ki (rat SGLT1; α-MG 0.3 and 1 mM, COS-7 cells): 31.2 nM
SMILES: Cc1cc(OCCCNCC(C)(C)C(N)=O)ccc1Cc1c(O[C@@H]2O[C@H](CO)[C@@H](O)[C@H](O)[C@H]2O)n[nH]c1C(C)C [mizagliflozin, 3-(3-{4-[3-(β-D-glucopyranosyloxy)-5-isopropyl-1H-pyrazol-4-ylmethyl-]-3-methylphenoxy}propylamino)-2,2-dimethylpropionamide]
ED50 ([1]; Rattus norvegicus, read-out: ED50 calculated from mean ΔAUC0-1 h (% of control), mixed carbohydrate 2.0 g/kg, single oral dose): 0.13 mg/kg | ΔAUC0-1 h of plasma glucose versus vehicle control ([1]; mixed carbohydrate 2.0 g/kg): significantly lowered | Cmax and AUCt versus dose ([2]; oral 3, 10 and 30 mg/kg, fasted male rats): increased with dose, but not in a clear dose proportional manner
